Several values for one entry are separate records, joined by “and”; a condition that tells them apart may be missing. Equal values may be shown once. Read-outs that look alike come from different tables or passages of the source.
What was measured:
[1] = mouse, in vivo
Procedure: We subsequently analyzed the single and combined effects of Abcb1 and Abcg2 deficiencies on EAI045 plasma pharmacokinetics and tissue accumulation using male WT, Abcg2^-/-, Abcb1a/1b^-/-, and Abcb1a/1b;Abcg2^-/- mice. As we wanted to assess tissue concentrations while plasma concentrations were still relatively high; we terminated this experiment at 30 min.
(§1) Mice (Mus musculus) were bred in the Netherlands Cancer Institute and housed and handled according to institutional guidelines complying with Dutch and EU legislation. Animals used were WT, Abcb1a/1b^-/- [39], Abcg2^-/- [40], Abcb1a/1b;Abcg2^-/- [41], Cyp3a^-/- [42], and Oatp1a/1b^-/- [43] mice of a >99% FVB/N strain background. Homozygous CYP3A4 humanized transgenic mice (Cyp3aXAV) were generated by cross-breeding of transgenic mice with stable human CYP3A4 expression in the liver or intestine, respectively, in a Cyp3a^-/- background. Proper functionality of the knockout and transgenic strains was monitored by regular testing with a variety of drug substrates. All the mice used were between 10 and 15 weeks of age. Animals were kept in a temperature-controlled environment with a 12 h light/12 h dark cycle and received a standard diet (Transbreed, SDS Diets, Technilab-BMI, The Netherlands) and acidified water ad libitum. Depending on the type of experiment, 5 or 6 mice were tested in each experimental group. All experimental animal protocols, including power calculations, were ethically assessed and designed under the nationally approved DEC/CCD project AVD301002016595 (approval date, 10 August 2016) and evaluated and approved by the institutional animal care and use committee (IACUC) of the Netherlands Cancer Institute.
(§2) EAI045 was dissolved in dimethyl sulfoxide (DMSO) at a concentration of […], and then diluted with a mixture of polysorbate 80/ethanol (1:1, v/v), and further diluted with 5% (w/v) glucose in water to yield a concentration of 2 mg/mL. Final concentrations for DMSO, polysorbate 80, ethanol, and glucose in the dosing solution were 5%, 2.5%, 2.5%, and 4.5% (v/v/v/w), respectively. Elacridar hydrochloride was dissolved in DMSO at a concentration of 53 mg/mL, then diluted with a mixture of polysorbate 80, ethanol, and water [20:13:67, (v/v/v)] to yield a concentration of 5 mg/mL elacridar. The final oral dose of elacridar was 50 mg/kg body weight. All dosing solutions were prepared freshly on the day of experiment.
(§3) To minimize variation in absorption, mice were fasted for about 3 h before EAI045 was administered by gavage into the stomach (n = 5–6), using a blunt-ended needle. EAI045 was administered orally at dose of 20 mg/kg. Elacridar was administered orally at a dose of 50 mg/kg, 3 h prior to oral EAI045 administration. For the 24- or 4-h experiments, tail vein blood samplings were performed at 5 min, 30 min, 1, 2, 4, and 8 h, or 5 min, 15 min, 30 min, 1, and 2 h time points after oral administration of EAI045, respectively, using microvettes containing heparin. For the 30 min experiments, blood samplings were performed at 5, 10, and 20 min from the tail vein. At the last time point (24 h, 4 h, or 30 min), mice were anesthetized with isoflurane and blood was collected by cardiac puncture. Then, mice were sacrificed by cervical dislocation and brain, liver, spleen, kidneys, lung, small intestine with content (SIWC), and testis were rapidly removed and weighed. Tissues were homogenized on ice in appropriate volumes of 2% (w/v) BSA. Blood samples were centrifuged at 9000× g for 6 min at 4 °C immediately after collection. All samples were stored at −30 °C until analysis.

[2] = 30-min pharmacokinetic experiment with oral elacridar coadministration in WT mice
Procedure: Considering the potential therapeutic benefit of increasing EAI045 brain penetration, and possibly also plasma exposure, we investigated to what extent elacridar, a dual ABCB1 and ABCG2 inhibitor, could increase the brain penetration and oral exposure of EAI045. We performed a 30-min pharmacokinetic experiment with an EAI045 dose of 20 mg/kg, and elacridar at 50 mg/kg. As elacridar plasma concentration peaks around 3–4 h after oral administration, elacridar was administered orally 3 h prior to oral EAI045 administration to male WT mice. Plasma and tissue EAI045 levels were determined 30 min later.
as §1, §2
as §3, with “collection.” for “collection. All samples were stored at −30 °C until analysis.”

[3] = system: L858R/T790M EGFR mutant kinase; parameters: method as in PMID 27251290; settings: cited from earlier work
[4] = WT + elacridar compared to Abcb1a/1b;Abcg2-/- mice, 30 min
[5] = male WT mice + elacridar, EAI045 20 mg/kg oral, 30 min
[6] = male WT mice + elacridar, EAI045 20 mg/kg oral, plasma

## O=C(Nc1nccs1)C(c1cc(F)ccc1O)N1Cc2ccccc2C1=O (centres unmarked) [EAI045]
[1]
  Kp.SIWC% (SIWC%-to-plasma ratio), fold decrease: 3.6 fold
  SIWC%, fold decrease: 2.1 fold
  brain-to-plasma ratio, fold increase: 5.2 fold
  plasma AUC0–30min, fold increase: 2.1 fold
[2]; WT + elacridar compared to Abcb1a/1b;Abcg2-/- mice
  plasma AUC0–30min, fold increase: 2.4 fold
[2]; [4]
  SIWC%, fold decrease: 3.5 fold
  SIWC%-to-plasma ratio, fold decrease: 8.6 fold
[2]; WT + elacridar vs WT, 30 min
  Fold change Cbrain: 17 fold and 17.0 fold
  Fold change Ctestis: 8.7 fold
  Fold change Kp.SIWC%: 0.032 fold
  Fold change Kp.brain: 5.4 fold
  Fold change Kp.testis: 2.6 fold
  Fold change SIWC%: 0.13 fold
  Kp.SIWC% (SIWC%-to-plasma ratio), fold decrease: 30.8 fold
  SIWC%, fold decrease: 7.5 fold
[2]; WT + elacridar vs WT, plasma AUC0–30min, EAI045 20 mg/kg oral, 20 mg/kg
  Fold change AUC: 4 fold and 4.0 fold
[2]; male WT mice + elacridar 50 mg/kg oral 3 h before, EAI045 20 mg/kg oral
  Plasma AUC0–30min: 549 ± 82 ***^. +++ h*ng/mL
[2]; [5]
  Cbrain (brain concentration): 395.9 ± 123.1 ***^. +++ ng/g
  Ctestis (testis concentration): 198.7 ± 58.9 ***^. +++ ng/g
  Kp.SIWC% (SIWC%-to-plasma ratio): 5.13 ± 2.63
  Kp.brain (brain-to-plasma ratio): 0.560 ± 0.200
  Kp.testis (testis-to-plasma ratio): 0.280 ± 0.096
  SIWC% (drug percentage of dose in small intestine with content): 4.00 ± 2.57 %
[2]; [6]
  Cmax: 1512 ± 260 ng/mL
  tmax: 10 to 30 min
[3]
  inhibition of the EGFR mutant relative to wild-type EGFR: most selective inhibition

From paper PMC9505538, “P-Glycoprotein (MDR1/ABCB1) Restricts Brain Accumulation of the Novel EGFR Inhibitor EAI045 and Oral Elacridar Coadministration Enhances Its Brain Accumulation and Oral Exposure” (Pharmaceuticals, 2022)
